According to patent EP3502093A1, “ZWITTERIONIC PILLARARENE DERIVATIVE” (Freie Universität Berlin, priority 2017, dated 2019):

Legend:
E. coli biofilm [1] = test: treatment of pre-fabricated biofilms of different stages for 24 h, LIVE/DEAD staining; assay type: cell-based; conditions: 200 nM, treated 24 h
Description: As depicted in Figure 2, E. coli biofilm in different stages - namely, in colony formation stage (1 day growth ["cultivated 1 + 1 days"]) and in maturation stages (3 days growth ["cultivated 1 + 3 days"] or 5 days growth ["cultivated 1 + 5 days"], respectively), were pre-fabricated according to literature^16 and then treated with a dose of 200 nM ZW-PA nanoparticles, 200 nM ampicillin or PBS for another 24 h. Afterwards, the resulting biofilms on the 2nd day, the 4th day and the 6th day were observed. A LIVE/DEAD staining of the E. coli cells was applied. By this staining, living cells are stained green, while dead cells are stained red. […] Specifically, the biofilm height increased from 8 µm on the 2nd day (1st + 1 day) to 25 µm on the 6th day (1st + 5 days). Only green (living) cells could be observed. The scale bars in all plots of Figure 2 represent 50 µm.

E. coli biofilm [2] = test: prolonged incubation (24 h, 72 h, 120 h) of 1-day pre-fabricated biofilm, regrowth and resistance; assay type: cell-based; conditions: 1-day biofilm, 200 nM
Description: Biofilms are considered to be highly resistant to antibacterial agents due to restricted penetration of antibacterial agents into biofilms, slow growth owing to nutrient limitation, expression of genes involved in the general stress response, and emergence of a biofilm-specific phenotype. Thus, it is important to investigate the emergence of resistances against a new antibacterial agent used for combating biofilms. Therefore, ZW-PA nanoparticles in a concentration of 200 nM were applied to a biofilm pre-fabricated for 1 day. Subsequently, the biofilm was incubated with ZW-PA nanoparticles and investigated after 1 day incubation (24 h, cultivated 1 + 1 days), after 3 days incubation (72 h, cultivated 1 + 3 days), and after 5 days incubation (120 h, cultivated 1 + 5 days). PBS and 200 nM ampicillin were used as controls. The scale bars in all plots of Figure 3 represent 50 µm.

[3] = biofilm grown 1 day (1 + 1 days)
[4] = biofilm grown 5 days (1 + 5 days)

Q: What does the source list for `CC1(C)S[C@@H]2[C@H](NC(=O)[C@H](N)c3ccccc3)C(=O)N2[C@H]1C(=O)O` [ampicillin]?
A: LIVE/DEAD staining, killing of cells in biofilm (E. coli biofilm [1]; [3]): less than the half of the cells, were stained red; biofilm height (E. coli biofilm [1]; [3]): 5 µm; LIVE/DEAD staining, killing of cells in biofilm (E. coli biofilm [1]; biofilm grown 3 days (1 + 3 days)): most of the cells were still alive; LIVE/DEAD staining, killing of cells in biofilm (E. coli biofilm [1]; [4]): effective only against the cells on the surface layer of the biofilm; biofilm height (E. coli biofilm [1]; [4]): 24 µm; LIVE/DEAD staining, killing of cells in biofilm (E. coli biofilm [2]; 24 h incubation (1 + 1 days)): a part of the cells could be killed; LIVE/DEAD staining, living versus dead cells (E. coli biofilm [2]; 72 h incubation (1 + 3 days)): more green than red cells; LIVE/DEAD staining, living versus dead cells (E. coli biofilm [2]; 120 h incubation (1 + 5 days)): more red than green cells; cell density and reformation of the biofilm on further incubation (E. coli biofilm [2]; further incubated to 72 h and 120 h): the biofilm could gradually reform
